Laboratory results taken from patent US20260216170A1, “TETRAHYDROISOQUINOLINE HETEROBIFUNCTIONAL BCL-XL DEGRADERS” (Treeline Biosciences, Inc., priority 2023, published 2026).

Target: T1, Human BCL-XL protein (N-terminal HiBiT tagged BCL-XL expressed in HT1080 cells) (Homo sapiens, UniProt Q07817)
T1 construct: expressed in transfected cells; host or cells: HT-1080 (ATCC CCL-121), stably transduced with lentivirus pLV-UBC-N-HiBiT-BCL-XL-PGK-puro and selected with puromycin
Experiment: HiBiT Based Degradation Assay
Format: cell-based
Details: 24 hours incubation; for DC50: BCL-XL degradation, HT1080 cells expressing N-HiBiT-BCL-XL, normalized with DMSO control, geometric mean for multiple data points, read-out: EC50 (24 h); for Ymin (24 h): bottom of BCL-XL degradation curve (remaining HiBiT-BCL-XL signal vs DMSO control), HT1080 cells
Outline: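 BCL-XL degradation was read as Nano-Glo HiBiT lytic luminescence relative to DMSO after a 24 h compound treatment of HT1080 cells carrying stably integrated N-HiBiT-BCL-XL. EC50 values come from four-parameter logistic curves, with the hook-curve minimum fixed as bottom, and are geometric means where tested repeatedly.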

T1 sequence (Q07817 whole entry): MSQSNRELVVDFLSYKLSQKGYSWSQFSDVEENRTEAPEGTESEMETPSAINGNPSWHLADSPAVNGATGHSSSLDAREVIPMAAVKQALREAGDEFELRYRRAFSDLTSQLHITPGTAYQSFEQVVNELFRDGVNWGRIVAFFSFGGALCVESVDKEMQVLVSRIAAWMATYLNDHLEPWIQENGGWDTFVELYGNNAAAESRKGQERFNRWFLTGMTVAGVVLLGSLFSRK

## Cn1nc(C2CCC(=O)NC2=O)c2ccc(NC(=O)CN3CCC4(CC3)CC(Oc3ccc(-c5ccc(N6CCc7ccnc(C(=O)Nc8nc9ccccc9s8)c7C6)nc5C(=O)O)c(C(F)(F)F)c3)C4)cc21 (stereo not shown) [Compound 168, 6-[8-(1,3-benzothiazol-2-ylcarbamoyl)-3,4-dihydro-1H-2,7-naphthyridin-2-yl]-3-[4-[[7-[2-[[3-(2,6-dioxo-3-piperidyl)-1-methyl-indazol-6-yl]amino]-2-oxo-ethyl]-7-azaspiro[3.5]nonan-2-yl]oxy]-2-(trifluoromethyl)phenyl]pyridine-2-carboxylic acid]
  DC50: < 10 nM
  Ymin (24 h): B (30% ≤ Ymin < 50%)

## Cn1nc(C2CCC(=O)NC2=O)c2ccc(NC(=O)CN3CCC4(CC3)CC(Oc3cccc(-c5ccc(N6CCc7cccc(C(=O)Nc8nc9ccccc9s8)c7C6)nc5C(=O)O)c3C(F)(F)F)C4)cc21 (stereo not shown) [Compound 169, 6-(8-(benzo[d]thiazol-2-ylcarbamoyl)-3,4-dihydroisoquinolin-2(1H)-yl)-3-(3-((7-(2-((3-(2,6-dioxopiperidin-3-yl)-1-methyl-1H-indazol-6-yl)amino)-2-oxoethyl)-7-azaspiro[3.5]nonan-2-yl)oxy)-2-(trifluoromethyl)phenyl)picolinic acid]
  DC50: < 10 nM
  Ymin (24 h): B (30% ≤ Ymin < 50%)

## COc1c(NC(=O)CN2CCC3(CC2)CC(Oc2ccc(-c4ccc(N5CCc6cccc(C(=O)Nc7nc8ccccc8s7)c6C5)nc4C(=O)O)c(C)c2)C3)ccc2c(C3CCC(=O)NC3=O)nn(C)c12 (stereo not shown) [Compound 170, 6-(8-(benzo[d]thiazol-2-ylcarbamoyl)-3,4-dihydroisoquinolin-2(1H)-yl)-3-(4-((7-(2-((3-(2,6-dioxopiperidin-3-yl)-7-methoxy-1-methyl-1H-indazol-6-yl)amino)-2-oxoethyl)-7-azaspiro[3.5]nonan-2-yl)oxy)-2-methylphenyl)picolinic acid]
  DC50: < 10 nM
  Ymin (24 h): A (Ymin < 30%)

## COc1c(NC(=O)CN2CCC3(CC2)CC(Oc2ccc(-c4ccc(N5CCc6ccnc(C(=O)Nc7nc8ccccc8s7)c6C5)nc4C(=O)O)c(C(F)(F)F)c2)C3)ccc2c(C3CCC(=O)NC3=O)nn(C)c12 (stereo not shown) [Compound 171, 6-(8-(benzo[d]thiazol-2-ylcarbamoyl)-3,4-dihydro-2,7-naphthyridin-2(1H)-yl)-3-(4-((7-(2-((3-(2,6-dioxopiperidin-3-yl)-7-methoxy-1-methyl-1H-indazol-6-yl)amino)-2-oxoethyl)-7-azaspiro[3.5]nonan-2-yl)oxy)-2-(trifluoromethyl)phenyl)picolinic acid]
  DC50: 10 to 100 nM
  Ymin (24 h): B (30% ≤ Ymin < 50%)

## COc1c(NC(=O)CN2CCC3(CC2)CC(Oc2ccc(-c4ccc(N5CCc6cccc(C(=O)Nc7nc8ccccc8s7)c6C5)nc4C(=O)O)c(C(F)(F)F)c2)C3)ccc2c(C3CCC(=O)NC3=O)nn(C)c12 (stereo not shown) [Compound 172, 6-(8-(benzo[d]thiazol-2-ylcarbamoyl)-3,4-dihydroisoquinolin-2(1H)-yl)-3-(4-((7-(2-((3-(2,6-dioxopiperidin-3-yl)-7-methoxy-1-methyl-1H-indazol-6-yl)amino)-2-oxoethyl)-7-azaspiro[3.5]nonan-2-yl)oxy)-2-(trifluoromethyl)phenyl)picolinic acid]
  DC50: 10 to 100 nM
  Ymin (24 h): B (30% ≤ Ymin < 50%)

## Cc1c(OCC[C@@H]2C[C@@H]3CN(CC(=O)Nc4ccc5c(C6CCC(=O)NC6=O)nn(C)c5c4)C[C@@H]3C2)cccc1-c1ccc(N2CCc3cccc(C(=O)Nc4nc5ccccc5s4)c3C2)nc1C(=O)O (stereo partly shown) [Compound 173a]
  DC50: < 10 nM
  Ymin (24 h): B (30% ≤ Ymin < 50%)

## Cc1c(OCC[C@@H]2C[C@H]3CC[C@@H](C2)N3CC(=O)Nc2ccc3c(C4CCC(=O)NC4=O)nn(C)c3c2)cccc1-c1ccc(N2CCc3cccc(C(=O)Nc4nc5ccccc5s4)c3C2)nc1C(=O)O (stereo partly shown) [Compound 174a]
  DC50: < 10 nM
  Ymin (24 h): A (Ymin < 30%)

## Cc1c(OCCC[C@@H]2C[C@H]3CC[C@@H](C2)N3CC(=O)Nc2ccc3c(C4CCC(=O)NC4=O)nn(C)c3c2)cccc1-c1ccc(N2CCc3cccc(C(=O)Nc4nc5ccccc5s4)c3C2)nc1C(=O)O (stereo partly shown) [Compound 175a]
  DC50: < 10 nM
  Ymin (24 h): B (30% ≤ Ymin < 50%)

## Cc1c(OCCC[C@H]2[C@@H]3C[C@H]2CN(CC(=O)Nc2ccc4c(C5CCC(=O)NC5=O)nn(C)c4c2)C3)cccc1-c1ccc(N2CCc3cccc(C(=O)Nc4nc5ccccc5s4)c3C2)nc1C(=O)O (stereo partly shown) [Compound 176a]
  DC50: 10 to 100 nM
  Ymin (24 h): C (50% ≤ Ymin < 70%)

## Cc1c(OCCN2CCCC23CCN(CC(=O)Nc2ccc4c(C5CCC(=O)NC5=O)nn(C)c4c2)CC3)cccc1-c1ccc(N2CCc3cccc(C(=O)Nc4nc5ccccc5s4)c3C2)nc1C(=O)O (stereo not shown) [Compound 177]
  DC50: < 10 nM
  Ymin (24 h): B (30% ≤ Ymin < 50%)

## Cc1cc(OCCCC2CCN(CCOc3ccc4c(C5CCC(=O)NC5=O)nn(C)c4c3)CC2)ccc1-c1ccc(N2CCc3cccc(C(=O)Nc4nc5ccccc5s4)c3C2)nc1C(=O)O (stereo not shown) [Compound 178, 6-[8-(1,3-benzothiazol-2-ylcarbamoyl)-3,4-dihydro-1H-isoquinolin-2-yl]-3-[4-[3-[1-[2-[3-(2,6-dioxo-3-piperidyl)-1-methyl-indazol-6-yl]oxyethyl]-4-piperidyl]propoxy]-2-methyl-phenyl]pyridine-2-carboxylic acid]
  DC50: < 10 nM
  Ymin (24 h): A (Ymin < 30%)

## Cc1cc(OCCCC2CCN(CCNc3ccc4c(C5CCC(=O)NC5=O)nn(C)c4c3)CC2)ccc1-c1ccc(N2CCc3cccc(C(=O)Nc4nc5ccccc5s4)c3C2)nc1C(=O)O (stereo not shown) [Compound 179, 6-(8-(benzo[d]thiazol-2-ylcarbamoyl)-3,4-dihydroisoquinolin-2(1H)-yl)-3-(4-(3-(1-(2-((3-(2,6-dioxopiperidin-3-yl)-1-methyl-1H-indazol-6-yl)amino)ethyl)piperidin-4-yl)propoxy)-2-methylphenyl)picolinic acid]
  DC50: < 10 nM
  Ymin (24 h): A (Ymin < 30%)

## COc1c(NC(=O)CN2CCC(CCCOc3cccc(-c4ccc(N5CCc6ccnc(C(=O)Nc7nc8ccccc8s7)c6C5)nc4C(=O)O)c3C(F)(F)F)CC2)ccc2c(C3CCC(=O)NC3=O)nn(C)c12 (stereo not shown) [Compound 180, 6-[8-(1,3-benzothiazol-2-ylcarbamoyl)-3,4-dihydro-1H-2,7-naphthyridin-2-yl]-3-[3-[3-[1-[2-[[3-(2,6-dioxo-3-piperidyl)-7-methoxy-1-methyl-indazol-6-yl]amino]-2-oxo-ethyl]-4-piperidyl]propoxy]-2-(trifluoromethyl)phenyl]pyridine-2-carboxylic acid]
  DC50: 10 to 100 nM
  Ymin (24 h): B (30% ≤ Ymin < 50%)

## COc1c(NC(=O)CN2CCC3(CC2)CC(COc2ccc(-c4ccc(N5CCc6ccnc(C(=O)Nc7nc8ccccc8s7)c6C5)nc4C(=O)O)c(C(F)(F)F)c2)C3)ccc2c(C3CCC(=O)NC3=O)nn(C)c12 (stereo not shown) [Compound 181, 6-[8-(1,3-benzothiazol-2-ylcarbamoyl)-3,4-dihydro-1H-2,7-naphthyridin-2-yl]-3-[4-[[7-[2-[[3-(2,6-dioxo-3-piperidyl)-7-methoxy-1-methyl-indazol-6-yl]amino]-2-oxo-ethyl]-7-azaspiro[3.5]nonan-2-yl]methoxy]-2-(trifluoromethyl)phenyl]pyridine-2-carboxylic acid]
  DC50: 10 to 100 nM
  Ymin (24 h): B (30% ≤ Ymin < 50%)

## Cn1nc(C2CCC(=O)NC2=O)c2ccc(NC(=O)CN3CCC(CCCOc4cccc(-c5ccc(N6CCc7cccc(C(=O)Nc8nc9ccccc9s8)c7C6)nc5C(=O)O)c4C(F)(F)F)CC3)c(F)c21 (stereo not shown) [Compound 182]
  DC50: 10 to 100 nM
  Ymin (24 h): B (30% ≤ Ymin < 50%)

## Cn1nc(C2CCC(=O)NC2=O)c2ccc(NC(=O)CN3CCC(CCCOc4ccc(-c5ccc(N6CCc7cccc(C(=O)Nc8nc9ccccc9s8)c7C6)nc5C(=O)O)c(C(F)(F)F)c4)CC3)c(F)c21 (stereo not shown) [Compound 183]
  DC50: 10 to 100 nM
  Ymin (24 h): B (30% ≤ Ymin < 50%)

## COc1c(NC(=O)CN2CCC3(CC2)CC(Oc2cccc(-c4ccc(N5CCc6ccnc(C(=O)Nc7nc8ccccc8s7)c6C5)nc4C(=O)O)c2C)C3)ccc2c(C3CCC(=O)NC3=O)nn(C)c12 (stereo not shown) [Compound 184, 6-[8-(1,3-benzothiazol-2-ylcarbamoyl)-3,4-dihydro-1H-2,7-naphthyridin-2-yl]-3-[3-[[7-[2-[[3-(2,6-dioxo-3-piperidyl)-7-methoxy-1-methyl-indazol-6-yl]amino]-2-oxo-ethyl]-7-azaspiro[3.5]nonan-2-yl]oxy]-2-methyl-phenyl]pyridine-2-carboxylic acid]
  DC50: < 10 nM
  Ymin (24 h): B (30% ≤ Ymin < 50%)

## Cn1nc(C2CCC(=O)NC2=O)c2ccc(NC(=O)CN3CCC4(CC3)CC(COc3cccc(-c5ccc(N6CCc7cccc(C(=O)Nc8nc9ccccc9s8)c7C6)nc5C(=O)O)c3C(F)(F)F)C4)c(F)c21 (stereo not shown) [Compound 185]
  DC50: 10 to 100 nM
  Ymin (24 h): B (30% ≤ Ymin < 50%)

## Cn1nc(C2CCC(=O)NC2=O)c2ccc(NC(=O)CN3CCC4(CC3)CC(COc3ccc(-c5ccc(N6CCc7cccc(C(=O)Nc8nc9ccccc9s8)c7C6)nc5C(=O)O)c(C(F)(F)F)c3)C4)c(F)c21 (stereo not shown) [Compound 186]
  DC50: 10 to 100 nM
  Ymin (24 h): B (30% ≤ Ymin < 50%)

## COc1c(NC(=O)CN2CCC3(CC2)CC(Oc2ccc(-c4ccc(N5CCc6ccnc(C(=O)Nc7nc8ccccc8s7)c6C5)nc4C(=O)O)c(C)c2)C3)ccc2c(C3CCC(=O)NC3=O)nn(C)c12 (stereo not shown) [Compound 187, 6-[8-(1,3-benzothiazol-2-ylcarbamoyl)-3,4-dihydro-1H-2,7-naphthyridin-2-yl]-3-[4-[[7-[2-[[3-(2,6-dioxo-3-piperidyl)-7-methoxy-1-methyl-indazol-6-yl]amino]-2-oxo-ethyl]-7-azaspiro[3.5]nonan-2-yl]oxy]-2-methyl-phenyl]pyridine-2-carboxylic acid]
  DC50: < 10 nM
  Ymin (24 h): A (Ymin < 30%)
